Results: US6605628B1, “Method of using 5-(arysulfonyl)-, 5-(arylsulfanyl)-and 5-(arylsulfanyl)thiazolidine-2,4-diones for inhibition of farnesyl-protein transferase” (Wyeth Holdings Corporation, priority 2001, dated 2003)

Key:
[1] = target: T1, FPTase (Homo sapiens, UniProt P49354+P49356); test: in vitro FTase Inhibition Assay, H-Ras used as substrate for farnesylation; type: biochemical; settings: Table I, read-out: IC50 H-Ras*
[2] = target: T1, FPTase; test: in vitro FTase Inhibition Assay, K-Ras used as substrate for farnesylation; type: biochemical; settings: Table I

Row | Structure (SMILES) | IC50 [1] | IC50 [2] | melting point
1 | COc1ccc(S(=O)(=O)C2(CCCC#Cc3ccc(C(F)(F)F)cc3)SC(=O)NC2=O)cc1 (stereo not drawn) [Example 153, 5-(4-Methoxybenzenesulfonyl)-5-[5-(4-trifluoromethylphenyl)pent-4-ynyl]thiazolidine-2,4-dione] | 170 to 200 nM | 1000 to 6100 nM | 160 to 163 °C
2 | Cc1ccc([N+](=O)[O-])cc1C#CCCCC1(S(=O)(=O)c2ccc(Oc3ccccc3)cc2)SC(=O)NC1=O (stereo not drawn) [Example 124] | 52 to 80 nM | 910 to 1300 nM | 203 to 204 °C
3 | Cc1cc(Br)ccc1C#CCCCC1(S(=O)(=O)c2ccc(I)cc2)SC(=O)NC1=O (stereo not drawn) [Example 144, 5-[5-(4-Bromo-2-methylphenyl)pent-4-ynyl]-5-(4-iodobenzenesulfonyl)-thiazolidine-2,4-dione] | 40 to 41 nM | 320 to 550 nM | 146 to 147 °C
4 | CCCCOc1ccc(S(=O)(=O)C2(CCCC#Cc3ccc(Cl)cc3)SC(=O)NC2=O)cc1 (stereo not drawn) [Example 112, 5-(4-Butoxybenzenesulfonyl)-5-[5-(4-chlorophenyl)-pent-4-ynyl]-thiazolidine-2,4-dione] | 590 to 600 nM | 1400 to 1500 nM | 116 to 118 °C
5 | COc1ccc(S(=O)(=O)C2(CCCC#Cc3ccc(Cl)cc3Cl)SC(=O)NC2=O)cc1 (stereo not drawn) [Example 117, 5-[5-(2,4-Dichlorophenyl)pent-4-ynyl]-5-(4-methoxybenzenesulfonyl)-thiazolidine-2,4-dione] | 20 to 30 nM | 510 to 1000 nM | 129 to 133 °C
6 | Cc1ccc(S(=O)(=O)C2(CC#Cc3ccc(Oc4ccccc4)cc3)SC(=O)NC2=O)cc1 (stereo not drawn) [Example 170, 5-[3-(4-Phenoxyphenyl)prop-2-ynyl]-5-(toluene-4-sulfonyl)-thiazolidine-2,4-dione] | 380 nM | 4700 nM | 64 to 66 °C
7 | Cc1cc([N+](=O)[O-])ccc1C#CCCCC1(S(=O)(=O)c2ccc(Oc3ccccc3)cc2)SC(=O)NC1=O (stereo not drawn) [Example 129, 5-[5-(2-Methyl-4-nitrophenyl)pent-4-ynyl]-5-(4-phenoxybenzenesulfonyl)-thiazolidine-2,4-dione] | 100 nM | 600 to 790 nM | 210 to 212 °C
8 | Cc1ccc(C)c(C#CCCCC2(S(=O)(=O)c3ccc(I)cc3)SC(=O)NC2=O)c1 (stereo not drawn) [Example 134, 5-[5-(2,5-Dimethylphenyl)pent-4-ynyl]-5-(4-iodobenzenesulfonyl)-thiazolidine-2,4-dione] | 14 to 850 nM | 430 to 680 nM | 129 to 130 °C
9 | Cc1ccc(S(=O)(=O)C2(CC#Cc3ccc(-c4ccccc4)cc3)SC(=O)NC2=O)cc1 (stereo not drawn) [Example 169, 5-(3-Biphenyl-4-yl-prop-2-ynyl)-5-(toluene-4-sulfonyl)-thiazolidine-2,4-dione] | 100 nM | 1800 nM | 179 to 180 °C
10 | O=C1NC(=O)C(CCCC#Cc2ccc(Cl)cc2)(S(=O)(=O)c2ccc3ccccc3c2)S1 (stereo not drawn) [Example 107, 5-[5-(4-Chlorophenyl)pent-4-ynyl]-5-(naphthalene-2-sulfonyl)thiazolidine-2,4-dione] | 180 to 200 nM | 620 to 700 nM | 150 to 153 °C
11 | Cc1ccc(S(=O)(=O)C2(CCCC#Cc3ccc(S(C)(=O)=O)cc3)SC(=O)NC2=O)cc1 (stereo not drawn) [Example 159, 5-[5-(4-Methanesulfonylphenyl)-pent-4-ynyl]-5-(toluene-4-sulfonyl)-thiazolidine-2,4-dione] | 650 nM | > 10000 nM | 190 to 193 °C
12 | O=C1NC(=O)C(CCCC#Cc2ccc(Cl)cc2)(S(=O)(=O)c2ccc(OCc3ccccc3)cc2)S1 (stereo not drawn) [Example 111, 5-(4-Benzyloxybenzenesulfonyl)-5-[5-(4-chlorophenyl)pent-4-ynyl]-thiazolidine-2,4-dione] | 110 to 150 nM | 300 to 550 nM | 181 to 184 °C
